According to US4058665A, “Novel 3,15-dilower alkyl PGE2 derivatives” (Yamanouchi Pharmaceutical Co., Ltd., priority 1975, dated 1977):

Experiments:
male Sprague-Dawly rats = test: antiulcer activity, pylorus-ligated fasted rats, samples given by gastric tube, stomach inspected for ulcers 21 hours later; format: in vivo, Sprague-Dawly rat; conditions: for ED50: Rattus norvegicus, po, pylorus-ligated rats, 21 hours, figures in parenthesis indicate confidence limit; for b)/a) (ED50 diarrhea / ED50 antiulcer): ratio of diarrhea ED50 to antiulcer ED50, p.o., rats
Description: Each of ten male Sprague-Dawly rate, 12 weeks old, in one group was isolated in a cage with a large mesh wire net at the bottom during experimental period and prevented from coprophagia. During this period the animals were completely fasted for 48 hours and water was provided only for 32 hours from the beginning. The animal was anesthetized with ether, the pylorus was ligated through a short midline incision. The samples were administered with a gastric tube immediately after the ligation. The animals were sacrificed 21 hours later with chloroform and their abdomens were widely opened to take out the stomach. The stomach was opened for inspection of ulcers.

[1] = diarrhea activity, fasted rats, samples given by gastric tube, occurrence of diarrhea observed in the following 24 hours; parameters: species or system Sprague-Dawly rat; conditions: rat, in vivo, po, observed 24 hours, figures in parenthesis indicate confidence limit, read-out: ED50 diarrhea activity
Description: Each of five male Sprague-Dawly rats, 12 weeks old, in one group was fasted for 24 hours.

[2] = Prostaglandins, 5, (5) 455-463 (1974); cited from earlier work
[3] = in vivo; cited from earlier work

CCCCC[C@@](C)(O)/C=C/[C@H]1[C@H](O)CC(=O)[C@@H]1C/C=C\CCCC(=O)OC [A, 11α, 15(R)-dihydroxy-15-methyl-9-oxo-5(cis),13(trans)-prostadienoic acid methyl ester]
ED50 (male Sprague-Dawly rats): 0.098 mg/kg
b)/a) (ED50 diarrhea / ED50 antiulcer) (male Sprague-Dawly rats): 1.2
TD50 at 24 h [1]: 0.12 mg/kg
anti-ulcer activity, in words [2]: strong anti-ulcer activity
diarrhea as a side effect, in words [3]: very severe diarrhea

CCCCC[C@](C)(O)/C=C/[C@H]1[C@H](O)CC(=O)[C@@H]1C/C=C\CCCC(=O)OC [B, 11α, 15(S)-dihydroxy-15-methyl-9-oxo-5(cis),13(trans)-prostadienoic acid methyl ester]
ED50 (male Sprague-Dawly rats): 0.06 mg/kg
b)/a) (ED50 diarrhea / ED50 antiulcer) (male Sprague-Dawly rats): 0.8
TD50 at 24 h [1]: 0.047 mg/kg

CCCCC[C@@](C)(O)/C=C/[C@H]1[C@H](O)CC(=O)[C@@H]1C/C=C\CC(C)CC(=O)OC (stereo partly drawn) [Compound C, 11α, 15(R)-dihydroxy-3,15-dimethyl-9-oxo-5(cis), 13(trans)-prostadienoic acid methyl ester]
ED50 (male Sprague-Dawly rats): 0.2 mg/kg
b)/a) (ED50 diarrhea / ED50 antiulcer) (male Sprague-Dawly rats): 6.0
TD50 at 24 h [1]: 1.2 mg/kg
